The subject of data set [1] is CH58TF infected primary CD4+ T-cells. In words: HIV+ patient sera/plasma recognition of CH58TF infected primary CD4+ T-cells (flow cytometry cell-surface staining). The conditions noted are these: Human immunodeficiency virus 1, T-cell, read-out: Fold Over DMSO (patient sera, n = 3). The format is cell-based, HIV-1. An outline of the steps:
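Primary CD4+ T cells from PBMC infected with HIV-1 CH58TF for 48 h, then surface-stained with 1:1000 HIV+ plasma or 5 μg/ml 17b plus 50 μM MCG analogs or DMSO; Alexa Fluor 647 anti-human IgG detection by flow cytometry, infected cells gated p24+. Values are fold change over DMSO.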
For orientation: A flow cytometer gives signals particle by particle.

Data set [2] has the same test system. The experiment in a line: Recognition of HIV-1 infected cells by 17b (flow cytometry cell-surface staining). The settings on record: Human immunodeficiency virus 1, T-cell, read-out: Fold Over DMSO (17b, n = 1). The format is cell-based. In short, it runs like this:
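Primary CD4+ T cells infected 48 h with HIV-1 CH58TF, stained with 5 μg/ml 17b plus MCG analogs (50 μM), (+)-BNM-III-170 or DMSO vehicle. Detection by Alexa Fluor 647 anti-human IgG secondary and flow cytometry. Infected cells gated as p24+ living cells.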

For data set [3], the system named is primary CD4+ T cells infected with CH58 TF. The experiment in a line: FACS-based ADCC assay with patient sera/plasma. The conditions noted are these: Human immunodeficiency virus 1, CD4+ T, read-out: Fold over DMSO (% ADCC with ps, n = 3). The format is cell-based, HIV-1. The procedure:
Measurement of antibody or serum-mediated ADCC is performed with a FACS-based assay as described in Prevost, “Influence of the Envelope gp120 Phe 43 Cavity on HIV-1 Sensitivity to Antibody-Dependent Cell-Mediated Cytotoxicity Responses,” 2017, J. Virol 91; Richard, “CD4 mimetics sensitize HIV-1-infected cells to ADCC,” 2015, Proc. Natl. Acad. Sci. USA, 112:E2687-2694; Richard, “Small CD4 Mimetics Prevent HIV-1 Uninfected Bystander CD4+ T Cell Killing Mediated by Antibody-dependent Cell-mediated Cytotoxicity,” 2016, EBioMedicine 3:122-134; Veillette, “The HIV-1 gp120 CD4-Bound Conformation Is Preferentially Targeted by Antibody-Dependent Cellular Cytotoxicity-Mediating Antibodies in Sera from HIV-1-Infected Individuals,” 2015, J. Virol., 89:545-551; Veillette, “Interaction with cellular CD4 exposes HIV-1 envelope epitopes targeted by antibody-dependent cell-mediated cytotoxicity,” 2014, J. Virol., 88:2633-2644; Richard, “Uninfected Bystander Cells Impact the Measurement of HIV-Specific Antibody-Dependent Cellular Cytotoxicity Responses,” 2018, MBio. 9(2): e00358-18; Richard, “BST-2 Expression Modulates Small CD4-Mimetic Sensitization of HIV-1-Infected Cells to Antibody-Dependent Cellular Cytotoxicity,” 2017, J. Virol. 91(11):e00219-17. This assay specifically measures ADCC activity against productively infected cells and is not affected by the confounding effect of uninfected bystander cells. See, Richard, “Uninfected Bystander Cells Impact the Measurement of HIV-Specific Antibody-Dependent Cellular Cytotoxicity Responses,” 2018, MBio., 9(2): e00358-18.
Briefly, primary CD4+ T cells isolated from healthy HIV-1-negative individuals or CEM-NKr cells are infected with HIV viruses. Forty-eight hours post-infection, cells are incubated with autologous PBMC (effector:target cell ratio of 10:1) in the presence of 1:1000 HIV+ sera dilution or anti-Env Abs (5 μg/mL) alone or in combination with increasing concentration of MCG analogs. Infected cells are identified by intracellular staining for HIV-1 p24 or GFP expression (for GFP expressing infectious molecular clones) and the percentage of cytotoxicity is calculated the following formula as described.
For cells infected with HIV-1 primary isolates, infected cells are identified by intracellular staining for HIV-1 p24. In that context, the percentage of cytotoxicity is calculated with the following formula by gating infected lived target cells: […]
The ADCC susceptibility of primary CD4+ T cells infected with CH58 TF mediated by HIV+ plasma+/−MCG analogs also was evaluated using a FACS-based assay as previously reported. See, Ding, 2016, J Virol., 90:2127-2134; and Richard, 2018, MBio 9.
Briefly, Primary CD4 T cells isolated from PBMC were infected with HIV-1CH58TF for 48 hours. For cell surface staining, 5 μg/ml 17b (FIG. 15A) or 1:1000 diluted HIV+ plasma (n=15) (FIG. 15B) were used in the presence of the different MCG analogs (50 μM), (+)-BNM-III-170 or with an equivalent volume of vehicle (DMSO). An Alexa Fluor 647-conjugated anti-human IgG secondary Ab was then used for fluorescent labeling. For ADCC (FIG. 15C), infected cells were used as target cells in a FACS-based ADCC assay that measures the killing of infected (p24+ cells). See, Madani, 2016, J. Virol., 90:5031-5046. The assay determines susceptibility to ADCC mediated by a 1/1,000 dilution of plasma from 15 HIV-1-infected individuals in the presence of the different MCG analogs (50 μM), (+)-BNM-III-170 (50 μM) or with an equivalent volume of vehicle (DMSO). Correlation between cell-surface staining with HIV+ plasma and ADCC was calculated using the Spearman rank correlation (FIG. 15D).

The nature of a further data set: Solubility in PBS. The conditions noted are these: Yes/NO. The format is physicochemical.
In data set [4] the test system is HIV-1JR-FL EnvΔCT expressed at the surface of HOS cells. In words: Cell-based ELISA (CBE), 17b readout. The settings on record: MCG analogs 50 μM; BNM-III-170 5 μM; 2G12 and DMSO normalized. An outline of the steps:
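HOS cells transiently expressing cytoplasmic-tail-truncated HIV-1JR-FL Env were treated 30 min at room temperature with compounds (50 μM), sCD4 ([…]) or DMSO, then 1 h with 17b antibody. Bound 17b was detected by HRP-conjugated anti-Fc chemiluminescence; values are fold over BNM-III-170 (5 μM), normalized to 2G12 and DMSO.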
(An ELISA detects its analyte on a solid surface through an enzyme-linked reagent.)

For the molecule `COc1ccccc1NC(=O)[C@H]1CCCN(S(C)(=O)=O)C1` [(S)-MCG-III-027-C05], the fold induction at 50 µM in data set [1] stood at 1.76; in data set [2], 1.5; in data set [3], 0.46. Moreover, in “Solubility in PBS”, the “Solubility (in PBS)” value is listed as “Yes”.

In the case of `Cn1cnc(S(=O)(=O)N2CCNC(C(=O)Nc3ccc(Cl)c(F)c3)C2)c1` (centres unmarked) [MCG-III-216-A04], the fold induction at 50 µM came to 0.845 in data set [1] and 1.24 in data set [2]. In addition, the “Solubility (in PBS)” value in “Solubility in PBS” was “Yes”. Moreover, the “Fold over BNM-III-170 - 17b binding (±0.05)” value in data set [4] is reported as 0.10 fold.

These data come from patent US12286401B2, “Small molecules that sensitize HIV-1 infected cells to antibody dependent cellular cytotoxicity” (THE TRUSTEES OF THE UNIVERSITY OF PENNSYLVANIA, priority 2018, dated 2025).
